Here are results for two compounds from paper PMC10060427, “A glucose tolerant β-glucosidase from a newly isolated Neofusicoccum parvum strain F7: production, purification, and characterization” (Scientific Reports, 2023).

Format in all cases: biochemical, Neofusicoccum parvum
One assay has as its system T1, Bgl3.
T1 construct: native extracellular enzyme purified from culture supernatant (ammonium sulphate, HiTrap Q FF, native gel extraction); about 65 kDa; GH3 only inferred by authors
Kind of assay: 4-nitrophenol release at […] nm, Lineweaver-Burk plot. As to conditions: standard assay described as 50 mM sodium acetate pH 5.0, 55 °C; 4-NPG 0-13.28 mM.

Another assay deals with T2, Bgl1.
T2 construct: native extracellular enzyme purified from culture supernatant, extracted from native gel; 240 kDa on native PAGE
The assay can be described thus: 4-NPG hydrolysis, absorbance at […] nm, glucose […]. As to conditions: product inhibition; substrate 4-NPG; standard assay described as 50 mM sodium acetate pH 5.0, 55 °C.

The subject of a further assay is T3, Bgl2.
T3 construct: native extracellular enzyme purified from culture supernatant, extracted from native gel; 230 kDa on native PAGE
The assay can be described thus: 4-NPG hydrolysis, absorbance at […] nm, glucose […]. The note with it: product inhibition; substrate 4-NPG; standard assay described as 50 mM sodium acetate pH 5.0, 55 °C.

The term Km denotes the concentration of substrate that gives half-maximal velocity. `O=[N+]([O-])c1ccc(O[C@@H]2O[C@H](CO)[C@@H](O)[C@H](O)[C@H]2O)cc1` [4-nitrophenyl-β-D-glucopyranoside]: in the assay with Bgl3, the Michaelis constant (Km) turned out to be 1180 µM.

In general, IC50 refers to the midpoint of a concentration-inhibition curve. A lower IC50 goes with higher potency. As to `OC[C@H]1OC(O)[C@H](O)[C@@H](O)[C@@H]1O` (stereo partly drawn) [glucose], the IC50 in the assay with Bgl1 turned out to be 2.6 mM; with Bgl2, 22.6 mM.
